According to the CheMixHub viscosity set:

Experiment: xn = mol fraction of the nth substance listed

CC#N + CCCCO
viscosity [mPa·s]
Conditions	298.15 K	303.15 K	308.15 K	313.15 K	318.15 K	323.15 K
101 kPa, x1 = 0.055	2.123	1.695	1.365	–	–	–
101 kPa, x1 = 0.0999	–	1.696	1.517	1.364	1.231	1.111
101 kPa, x1 = 0.1178	1.764	1.422	1.159	–	–	–
101 kPa, x1 = 0.1952	1.449	1.186	0.978	–	–	–
101 kPa, x1 = 0.2	–	1.322	1.197	1.085	0.986	0.9
101 kPa, x1 = 0.2302	1.322	1.086	0.899	–	–	–
101 kPa, x1 = 0.2997	–	1.054	0.957	0.876	0.803	0.738
101 kPa, x1 = 0.3526	1.016	0.854	0.721	–	–	–
101 kPa, x1 = 0.4	–	0.842	0.781	0.723	0.667	0.619
101 kPa, x1 = 0.4775	0.792	0.681	0.585	–	–	–
101 kPa, x1 = 0.5	–	0.695	0.643	0.601	0.555	0.519
101 kPa, x1 = 0.5911	0.615	0.538	0.472	–	–	–
101 kPa, x1 = 0.5998	–	0.574	0.536	0.502	0.47	0.442
101 kPa, x1 = 0.6999	–	0.482	0.453	0.427	0.402	0.381
101 kPa, x1 = 0.7026	0.504	0.445	0.397	–	–	–
101 kPa, x1 = 0.7906	0.433	0.391	0.352	–	–	–
101 kPa, x1 = 0.8	–	0.413	0.391	0.374	0.354	0.336
101 kPa, x1 = 0.9	–	0.362	0.345	0.329	0.315	0.301
101 kPa, x1 = 0.9094	0.383	0.348	0.32	–	–	–
101.3 kPa, x1 = 0.1671	1.475	1.336	1.204	–	–	–
101.3 kPa, x1 = 0.311	1.029	0.937	0.849	–	–	–
101.3 kPa, x1 = 0.4362	0.77	0.706	0.65	–	–	–
101.3 kPa, x1 = 0.5462	0.605	0.566	0.535	–	–	–
101.3 kPa, x1 = 0.6436	0.484	0.457	0.431	–	–	–
101.3 kPa, x1 = 0.7303	0.441	0.408	0.391	–	–	–
101.3 kPa, x1 = 0.8082	0.403	0.381	0.361	–	–	–
101.3 kPa, x1 = 0.8784	0.387	0.367	–	–	–	–
101.3 kPa, x1 = 0.942	0.348	0.327	–	–	–	–
